Assay results reported in US7560466B2, “Methods of treating or preventing autoimmune diseases with 2,4-pyrimidinediamine compounds” (Rigel Pharmaceuticals, Inc., priority 2003, dated 2009).
Where a name gives a salt, the structure may show the parent alone. Read-outs that look alike come from different tables or passages of the source.

System: cultured human mast cells (CHMC), IgE-induced degranulation
Experiment: CHMC low cell density IgE activation: tryptase assay
Assay type: cell-based
Details: CHMC low cell density
Method: Inhibition of degranulation was measured at both low and high cell density by quantifying the release of the granule specific factors tryptase, histamine and hexosaminidase. Inhibition of release and/or synthesis of lipid mediators was assessed by measuring the release of leukotriene LTC4 and inhibition of release and/or synthesis of cytokines was monitored by quantifying TNF-α, IL-6 and IL-13. Tryptase and hexosaminidase were quantified using fluorogenic substrates as described in their respective examples. […] The protocols of the various assays are provided below.
A second phase is performed to convert the expanded CD34-negative progenitor cells into differentiated mucosal mast cells. These mucosal cultured human mast cells (“CHMC”) are derived from CD34+ cells isolated from umbilical cord blood and treated to form a proliferated population of CD34-negative progenitor cells, as described above. […] Also, the cytokine composition of the medium was modified such that it contained SCF (200 ng/mL) and recombinant human IL-6 (200 ng/mL; Peprotech, Catalog No. 200-06 reconstituted to 100 ug/mL in sterile 10 mM acetic acid) (“CM/SCF/IL-6 medium”).
Pellet CHMC cells (980 rpm, 10 min) and resuspend in pre-warmed MT. Add 65 ul of cells to each 96-well plate. Depending on the degranulation activity for each particular CHMC donor, load 1000-1500 cells/well. Mix four times followed by a 1 hr incubation at 37° C. […] Stimulate cells by adding 25 ul of 6× anti-IgE solution to the appropriate plates. Add 25 ul MT to un-stimulated control wells. Mix twice following addition of the anti-IgE. Incubate at 37° C. for 30 minutes. […] Spin plates at 1000 rpm for 10 min to pellet cells. Transfer 25 ul of supernatant to a 96-well black bottom plate and add 100 ul of freshly diluted tryptase substrate solution to each well. Incubate plates at room temperature for 30 min.
In Table 1, all reported values are IC50s (in μM). […] In Table 1, all reported values are IC50s (in μM).

[1] = 3pt, read-out: LD Tryptase, CHMC, IgE, 3pt
[2] = 8pt, read-out: LD Tryptase, CHMC, IgE, 8pt

SMILES	IC50 [1]	IC50 [2]
CNC(=O)COc1c(C)cc(Nc2ncc(F)c(Nc3ccc4c(c3)NC(=O)C(C)(C)O4)n2)cc1C [Compound 574, N2-[3,5-dimethyl-4-(N-methylamino)carbonylmethyleneoxyphenyl]-N4-(2,2-dimethyl-3-oxo-4H-benz[1,4]oxazin-6-yl)-5-fluoro-2,4-pyrimidinediamine]	< 10 µM	< 10 µM
CNC(=O)Cn1ccc2cc(Nc3ncc(F)c(Nc4ccc5c(c4)OCCO5)n3)ccc21 [Compound 655, N4-(3,4-Ethylenedioxyphenyl)-5-fluoro-N2-[1-(N-methylamino)carbonylmethyleneindol-5-yl]-2,4-pyrimidinediamine]	–	< 10 µM
COc1cc(Nc2ncc(F)c(Nc3ccc4c(n3)NC(=O)C(C)(C)O4)n2)cc(OC)c1OC.O=S(=O)(O)c1ccc(O)cc1 [Compound 676, N4-(2,2-Dimethyl-3-oxo-4H-5-pyrid[1,4]oxazin-6-yl)-5-fluoro-N2-(3,4,5-trimethoxyphenyl)-2,4-pyrimidinediamine 4-Hydroxybenzenesulfonic Acid Salt]	< 10 µM	< 10 µM
COc1cc(Nc2ncc(F)c(Nc3ccc4c(n3)NC(=O)C(C)(C)O4)n2)cc(OC)c1OC.O=S(=O)(O)c1cccnc1 [Compound 678, N4-(2,2-Dimethyl-3-oxo-4H-5-pyrid[1,4]oxazin-6-yl)-5-fluoro-N2-(3,4,5-trimethoxyphenyl)-2,4-pyrimidinediamine 0.5 Pyridine-3-sulfonic Acid Salt]	< 10 µM	< 10 µM
CCc1ccc(S(=O)(=O)O)cc1.COc1cc(Nc2ncc(F)c(Nc3ccc4c(n3)NC(=O)C(C)(C)O4)n2)cc(OC)c1OC [Compound 679, N4-(2,2-Dimethyl-3-oxo-4H-5-pyrid[1,4]oxazin-6-yl)-5-fluoro-N2-(3,4,5-trimethoxyphenyl)-2,4-pyrimidinediamine p-Ethylbenzenesulfonic Acid Salt]	< 10 µM	< 10 µM
CNC(=O)Cn1ccc2cc(Nc3ncc(F)c(Nc4ccc5c(n4)NC(=O)C(C)(C)O5)n3)ccc21 [Compound 683, N4-(2,2-Dimethyl-3-oxo-4H-5-pyrid[1,4]oxazin-6-yl)-5-fluoro-N2-[1-(N-methylamino)carbonylmethyleneindol-5-yl]-2,4-pyrimidinediamine]	< 10 µM	< 10 µM
Cc1cc(Nc2ncc(F)c(Nc3ccc4c(n3)NC(=O)C(C)(C)O4)n2)cc(C)c1Cl [Compound 684, N2-(4-Chloro-3,5-dimethylphenyl)-N4-(2,2-dimethyl-3-oxo-4H-5-pyrid[1,4]oxazin-6-yl)-5-fluoro-2,4-pyrimidinediamine p-Toluenesulfonic Acid Salt]	< 10 µM	–
CC1(C)Oc2ccc(Nc3nc(Nc4cc(Cl)c(O)c(Cl)c4)ncc3F)nc2NC1=O [Compound 686, N4-(2,2-Dimethyl-3-oxo-4H-5-pyrid[1,4]oxazin-6-yl)-N2-(3,5-dichloro-4-hydroxyphenyl)-5-fluoro-2,4-pyrimidinediamine]	< 10 µM	< 10 µM
CN1C(=O)C(C)(C)Oc2ccc(Nc3ncc(F)c(Nc4ccc5c(n4)N(C)C(=O)C(C)(C)O5)n3)nc21 [Compound 687, N2,N4-Bis(3-oxo-2,2,4-trimethyl-5-pyrid[1,4]oxazin-6-yl)-5-fluoro-2,4-pyrimidinediamine]	< 10 µM	–
COC(=O)CN1C(=O)C(C)(C)Oc2ccc(Nc3ccnc(Nc4ccc5c(n4)N(CC(=O)OC)C(=O)C(C)(C)O5)n3)nc21 [Compound 688, N2,N4-Bis(2,2-dimethyl-4-carbomethoxymethyl-3-oxo-5-pyrid[1,4]oxazin-6-yl)-2,4-pyrimidinediamine]	> 10 µM	–
COc1cc(Nc2ncc(F)c(Nc3ccc4c(n3)N(C)C(=O)C(C)(C)O4)n2)cc(OC)c1OC [Compound 689, 5-Fluoro-N4-(3-oxo-2,2,4-trimethyl-5-pyrid[1,4]oxazin-6-yl)-N2-(3,4,5-trimethoxyphenyl)-2,4-pyrimidinediamine]	–	< 10 µM
COC(=O)CN1C(=O)C(C)(C)Oc2ccc(Nc3nc(Nc4cc(OC)c(OC)c(OC)c4)ncc3F)nc21 [Compound 690, N4-(2,2-Dimethyl-4-carbomethoxymethyl-3-oxo-5-pyrid[1,4]oxazin-6-yl)-5-fluoro-N2-(3,4,5-trimethoxyphenyl)-2,4-pyrimidinediamine]	–	< 10 µM
COC(=O)CN1C(=O)C(C)(C)Oc2ccc(N(CC(=O)OC)c3nc(Nc4cc(OC)c(OC)c(OC)c4)ncc3F)nc21 [Compound 691, N4-(2,2-Dimethyl-4-carbomethoxymethyl-3-oxo-5-pyrid[1,4]oxazin-6-yl)-5-fluoro-N4-carbomethoxymethyl-N2-(3,4,5-trimethoxyphenyl)-2,4-pyrimidinediamine]	< 10 µM	–

Other lines, results leading:

IC50 [1]	IC50 [2]	SMILES
< 10 µM	< 10 µM	COc1cc(Nc2ncc(F)c(Nc3ccc4c(n3)NC(=O)C(C)(C)O4)n2)cc(OC)c1OCCN1CCOCC1 [Compound 692, N2-[3,5-Dimethoxy-4-(2-(N-morpholino)ethyloxo)phenyl]-N4-(2,2-dimethyl-3-oxo-4H-5-pyrid[1,4]oxazin-6-yl)-5-fluoro-2,4-pyrimidinediamine]
< 10 µM	–	CC1(C)Oc2ccc(Nc3ncc(F)c(Nc4ccc5c(n4)NC(=O)C(C)(C)O5)n3)nc2NC1=O [Compound 693, N2,N4-Bis(2,2-dimethyl-3-oxo-4H-5-pyrid[1,4]oxazin-6-yl)-5-fluoro-2,4-pyrimidinediamine]
–	< 10 µM	Cc1nn(C)c2cc(Nc3ncc(F)c(Nc4ccc5c(n4)NC(=O)C(C)(C)O5)n3)ccc12 [Compound 812, N2-(1,3-Dimethylindazol-6-yl)-N4-(2,2-dimethyl-3-oxo-4H-5-pyrid[1,4]oxazin-6-yl)-5-fluoro-2,4-pyrimidinediamine]
–	< 10 µM	Cc1n[nH]c2cc(Nc3ncc(F)c(Nc4ccc5c(n4)NC(=O)C(C)(C)O5)n3)ccc12 [Compound 813, N4-(2,2-Dimethyl-3-oxo-4H-5-pyrid[1,4]oxazin-6-yl)-5-fluoro-N2-(3-methyl-1H-indazol-6-yl)-2,4-pyrimidinediamine]
–	< 10 µM	COCCCn1ncc2cc(Nc3ncc(F)c(Nc4ccc5c(n4)NC(=O)C(C)(C)O5)n3)ccc21 [Compound 814, N4-(2,2-Dimethyl-3-oxo-4H-5-pyrid[1,4]oxazin-6-yl)-5-fluoro-N2-[1-(3-methoxypropyl)indazol-5-yl]-2,4-pyrimidinediamine]
–	< 10 µM	CC1(C)Oc2ccc(Nc3nc(Nc4ccc5c(cnn5CCCN5C(=O)c6ccccc6C5=O)c4)ncc3F)cc2NC1=O [Compound 817, N4-(2,2-Dimethyl-3-oxo-4H-benz[1,4]oxazin-6-yl)-5-fluoro-N2-[1-[3-(N-phthalimidopropyl)]indazol-5-yl]-2,4-pyrimidinediamine]
–	< 10 µM	C[C@@H]1Oc2ccc(Nc3nc(Nc4ccc5c(cnn5CCCN5C(=O)c6ccccc6C5=O)c4)ncc3F)cc2NC1=O [Compound 818, (S)-5-Fluoro-N4-(2-methyl-3-oxo-2H,4H-benz[1,4]oxazin-6-yl)-N2-[1-[3-(N-phthalimidopropyl)]indazol-5-yl]-2,4-pyrimidinediamine]
< 10 µM	< 10 µM	Cn1nc(N)c2cc(Nc3ncc(F)c(Nc4ccc5c(n4)NC(=O)C(C)(C)O5)n3)ccc21 [Compound 837, N2-(3-A mino-1-methylindazol-5-yl)-N4-(2,2-dimethyl-3-oxo-4H-5-pyrid[1,4]oxazin-6-yl)-5-fluoro-2,4-pyrimidinediamine]
< 10 µM	< 10 µM	CC1(C)Oc2ccc(Nc3nc(Nc4ccc5c(cnn5CCCO)c4)ncc3F)nc2NC1=O [Compound 838, N4-(2,2-Dimethyl-3-oxo-4H-5-pyrid[1,4]oxazin-6-yl)-5-fluoro-N2-[1-(3-hydroxypropyl)indazol-5-yl]-2,4-pyrimidinediamine]
< 10 µM	< 10 µM	COCCCn1ncc2ccc(Nc3ncc(F)c(Nc4ccc5c(n4)NC(=O)C(C)(C)O5)n3)cc21 [Compound 839, N4-(2,2-Dimethyl-3-oxo-4H-5-pyrid[1,4]oxazin-6-yl)-5-fluoro-N2-[1-(3-methoxypropyl)indazol-6-yl]-2,4-pyrimidinediamine]
–	> 10 µM	CC1(C)Oc2ccc(Nc3nc(Nc4ccc5c(cnn5CCCNS(=O)(=O)C(F)(F)F)c4)ncc3F)nc2NC1=O [Compound 844, N4-(2,2-Dimethyl-3-oxo-4H-5-pyrid[1,4]oxazin-6-yl)-5-fluoro-N2-[1-[3-(N-trifluoromethylsulfonylamino)propyl]indazol-5-yl]-2,4-pyrimidinediamine]
–	< 10 µM	CC(C)(C)C(=O)NCCCn1ncc2cc(Nc3ncc(F)c(Nc4ccc5c(n4)NC(=O)C(C)(C)O5)n3)ccc21 [Compound 852, N4-(2,2-Dimethyl-3-oxo-4H-5-pyrido[1,4]oxazin-6-yl)-5-fluoro-N2-[1-(3-pivalamidopropyl)indazol-5-yl]-2,4-pyrimidinediamine]
